These are literature values, as cited in article PMC5548178 (Pharmacotherapy, 2016).

Like-named read-outs stand apart in the source and are kept apart here.

The conditions of data set [1]: reported variability in healthy volunteers.
The conditions of data set [2]: single-dose gemfibrozil 600 mg after 2 weeks of lopinavir 400 mg–ritonavir 100 mg twice daily; healthy volunteers.

As for `CC(C)(Oc1ccc(C(=O)c2ccc(Cl)cc2)cc1)C(=O)O` [fenofibric acid], the “AUC (mean ± SD)” value in data set [1] was 92 ± 26 µg·h/mL. The “Substrate for the efflux transporter P-glycoprotein” value in the data set on P-glycoprotein (P-gp) is “not a substrate”.
`Cc1ccc(C)c(OCCCC(C)(C)C(=O)O)c1` [gemfibrozil]: the “Reduction in gemfibrozil exposure (AUC0-∞)” value in data set [2] is reported as 41%. Further, the “Mean change in triglyceride levels” value with triglyceride levels (HIV-infected patients receiving NNRTI-based cART) was “–60.3%”; in the data set on triglyceride levels (non–HIV-infected controls), “–59.3%”.
